Target: T1, human IDO1/HEK293 cells (Homo sapiens, UniProt P14902)
T1 construct: expressed in transfected cells
Assay: HEK Human IDO-1 cell-based IDO inhibition assay (kynurenine production)
Conditions: HEK293 cells stably expressing human IDO1, 20 hours incubation, absorbance at 490 nm; read-out: HEK Human IDO-1 Bio Activity (IDO IC50)
Procedure: They were cultured in medium (DMEM with 10% FBS) containing 1 mg/ml G418 for two weeks.
The human IDO1/HEK293 cells were seeded at 10,000 cells per 50 μL per well with RPMI/phenol red free media contains 10% FBS in a 384-well black wall clear bottom tissue culture plate (Matrix Technologies LLC) 100 nL of certain concentration of compound was then added to each well using ECHO liquid handling systems. The cells were incubated for 20 hours in 37° C. incubator with 5% CO2.
The compound treatments were stopped by adding trichloroacetic acid (Sigma-Aldrich) to a final concentration at 0.2%. The cell plate was further incubated at 50° C. for 30 minute. The equal volume supernatant (20 μL) and 0.2% (w/v) Ehrlich reagent (4-dimethylaminobenzaldehyde, Sigma-Aldrich) in glacial acetic acid were mixed in a new clear bottom 384-well plate. This plate was then incubated at room temperature for 30 minute. The absorbance at 490 nm was measured on Envision plate reader.

T1 sequence (P14902 whole entry): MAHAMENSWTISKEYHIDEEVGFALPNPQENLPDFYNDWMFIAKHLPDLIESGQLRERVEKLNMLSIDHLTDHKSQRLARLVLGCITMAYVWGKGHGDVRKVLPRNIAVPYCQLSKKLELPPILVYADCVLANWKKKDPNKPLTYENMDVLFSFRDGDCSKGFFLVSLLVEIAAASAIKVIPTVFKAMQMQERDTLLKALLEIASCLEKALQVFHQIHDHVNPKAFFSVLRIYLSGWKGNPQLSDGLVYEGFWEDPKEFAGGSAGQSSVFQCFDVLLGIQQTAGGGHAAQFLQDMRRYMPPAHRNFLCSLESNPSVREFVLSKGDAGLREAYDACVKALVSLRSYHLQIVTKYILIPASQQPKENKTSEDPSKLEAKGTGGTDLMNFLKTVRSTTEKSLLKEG

Compound	IC50 [µM]
O=C(NCC1CCN(c2ccnc3ccc(F)cc23)CC1)c1ccc(Cl)cc1 [Example 88]	< 2
O=C(NCC1CCN(c2ccnc3ccc(F)cc23)CC1)c1ccc(F)cc1 [Example 89]	< 0.25
O=C(NCC1CCN(c2ccnc3ccc(F)cc23)CC1)c1cccc(Cl)c1 [Example 90]	< 2
Cc1ccc(NC(=O)NC2CCN(c3ccnc4ccc(F)cc34)CC2)cc1 [Example 91, 1-(1-(6-Fluoroquinolin-4-yl)piperidin-4-yl)-3-(p-tolyl)urea]	< 0.25
O=C(Nc1ccc(Cl)cc1F)NC1CCN(c2ccnc3ccc(F)cc23)CC1 [Example 92, 1-(4-Chloro-2-fluorophenyl)-3-(1-(6-fluoroquinolin-4-yl)piperidin-4-yl)urea]	< 2
O=C(Nc1ccc(F)cc1)NC1CCN(c2ccnc3ccc(F)cc23)CC1 [Example 93, 1-(4-Fluorophenyl)-3-(1-(6-fluoroquinolin-4-yl)piperidin-4-yl)urea]	< 2
COc1ccc(CN[C@H]2CC[C@H](c3ccccc3)CC2)cc1 [Example 97, trans-N-(4-Methoxybenzyl)-4-phenylcyclohexanamine]	< 0.25
O=C(Nc1ccc(Cl)cc1)N[C@H]1CC[C@H](c2ccnc3ccc(F)cc32)CC1 [Example 119, 1-(4-Chlorophenyl)-3-(trans-4-(6-fluoroquinolin-4-yl)cyclohexyl)urea]	< 0.05
O=C(Nc1ccc(Cl)cc1F)N[C@H]1CC[C@H](c2ccnc3ccc(F)cc32)CC1 [Example 120, 1-(4-chloro-2-fluorophenyl)-3-(trans-4-(6-fluoroquinolin-4-yl)cyclohexyl)urea]	< 0.05
O=C(Nc1ccc(F)cc1F)N[C@H]1CC[C@H](c2ccnc3ccc(F)cc32)CC1 [Example 122, 1-(2,4-difluorophenyl)-3-(trans-4-(6-fluoroquinolin-4-yl)cyclohexyl)urea]	< 0.25
O=C(Nc1ccc(F)c(F)c1)N[C@H]1CC[C@H](c2ccnc3ccc(F)cc32)CC1 [Example 123, 1-(3,4-difluorophenyl)-3-(trans-4-(6-fluoroquinolin-4-yl)cyclohexyl)urea]	< 0.25
O=C(Nc1ccc(F)cc1)N[C@H]1CC[C@H](c2ccnc3ccc(F)cc32)CC1 [Example 124, 1-(4-fluorophenyl)-3-(trans-4-(6-fluoroquinolin-4-yl)cyclohexyl)urea]	< 0.05
O=C(Nc1ccc(Cl)cc1)N[C@H]1CC[C@@H](c2ccnc3ccc(F)cc32)CC1 [Example 125, 1-(4-Chlorophenyl)-3-(cis-4-(6-fluoroquinolin-4-yl)cyclohexyl)urea]	< 0.25
Fc1ccc2nccc([C@H]3CC[C@H](NCc4ccccc4)CC3)c2c1 [Example 130, trans-N-Benzyl-4-(6-fluoroquinolin-4-yl)cyclohexanamine]	< 0.25
Fc1ccc2nccc([C@H]3CC[C@@H](NCc4ccccc4)CC3)c2c1 [Example 131, cis-N-Benzyl-4-(6-fluoroquinolin-4-yl)cyclohexanamine]	< 0.25
O=C(O)Cc1ccc(CN[C@H]2CC[C@H](c3ccnc4ccc(F)cc43)CC2)cc1 [Example 139, 2-(4-(((trans-4-(6-Fluoroquinolin-4-yl)cyclohexyl)amino)methyl)phenyl)acetic acid]	< 2
O=C(Cc1ccc(Cl)cc1)N[C@H]1CC[C@H](c2ccnc3ccc(F)cc32)CC1 [Example 144, 2-(4-Chlorophenyl)-N-(trans-4-(6-fluoroquinolin-4-yl)cyclohexyl)acetamide]	< 2
CC(C(=O)N[C@H]1CC[C@H](c2ccnc3ccc(F)cc32)CC1)c1ccc(Cl)cc1 (stereo partly drawn) [Example 145, 2-(4-chlorophenyl)-N-(trans-4-(6-fluoroquinolin-4-yl)cyclohexyl)propanamide]	< 2
O=C(N[C@H]1CC[C@H](c2ccnc3ccc(F)cc32)CC1)c1ccc(Cl)cc1 [Example 146, 4-chloro-N-(trans-4-(6-fluoroquinolin-4-yl)cyclohexyl)benzamide]	< 2
O=C(Cc1ccc(Cl)cc1)N[C@H]1CC[C@@H](c2ccnc3ccc(F)cc32)CC1 [Example 147, 2-(4-chlorophenyl)-N-(cis-4-(6-fluoroquinolin-4-yl)cyclohexyl)acetamide]	< 2

Compound	IC50 [µM]
CC(C(=O)N[C@H]1CC[C@@H](c2ccnc3ccc(F)cc32)CC1)c1ccc(Cl)cc1 (stereo partly drawn) [Example 148, 2-(4-chlorophenyl)-N-(cis-4-(6-fluoroquinolin-4-yl)cyclohexyl)propanamide]	< 2
O=C(N[C@H]1CC[C@@H](c2ccnc3ccc(F)cc32)CC1)c1ccc(Cl)cc1 [Example 149, 4-chloro-N-(cis-4-(6-fluoroquinolin-4-yl)cyclohexyl)benzamide]	< 0.25
Cc1cc(C2CCC(C(C)NC(=O)c3ccc(Cl)cc3)CC2)ccn1 (stereo not shown) [Example 157a, 4-Chloro-N-(1-(4-(2-methylpyridin-4-yl)cyclohexyl)ethyl)benzamide]	< 0.25
Cc1c(C2CCC(C(C)NC(=O)c3ccc(Cl)cc3)CC2)ccnc1F (stereo not shown) [Example 158a, 4-chloro-N-(1-(4-(2-fluoro-3-methylpyridin-4-yl)cyclohexyl)ethyl)benzamide]	< 0.05
Cc1nccc(C2CCC(C(C)NC(=O)c3ccc(Cl)cc3)CC2)c1C (stereo not shown) [Example 159a, 4-chloro-N-(1-(4-(2,3-dimcthylpyridin-4-yl)cyclohexyl)ethyl)benzamide]	< 0.05
Cc1cnccc1C1CCC(C(C)NC(=O)c2ccc(Cl)cc2)CC1 (stereo not shown) [Example 160a, 4-chloro-N-(1-(4-(3-methylpyridin-4-yl)cyclohexyl)ethyl)benzamide]	< 0.05
CCOc1ccc(C(=O)N[C@H](C)[C@H]2CC[C@@H](c3ccnc4ccc(F)cc43)CC2)nc1 [Example 163, 5-Ethoxy-N—((R)-1-(cis-4-(6-fluoroquinolin-4-yl)cyclohexyl)ethyl)picolinamide]	< 0.05
C[C@@H](NC(=O)c1ccc(C#N)cc1)[C@H]1CC[C@@H](c2ccnc3ccc(F)cc32)CC1 [Example 176, 4-cyano-N-((R)-1-(cis-4-(6-fluoroquinolin-4-yl)cyclohexyl)ethyl)benzamide]	< 0.05
COc1ccc(-c2ccc(C(=O)N[C@H](C)[C@H]3CC[C@@H](c4ccnc5ccc(F)cc54)CC3)nc2)cc1F [Example 178, 5-(3-fluoro-4-methoxyphenyl)-N-((R)-1-(cis-4-(6-fluoroquinolin-4-yl)cyclohexyl)ethyl)picolinamide]	< 0.25
C[C@@H](NC(=O)c1ccc(-n2cccc2)cc1)[C@H]1CC[C@@H](c2ccnc3ccc(F)cc32)CC1 [Example 195, N-((R)-1-(cis-4-(6-fluoroquinolin-4-yl)cyclohexyl)ethyl)-4-(1H-pyrrol-1-yl)benzamide]	< 0.05
C[C@@H](NC(=O)c1ccc(-n2ccnc2)cc1)[C@H]1CC[C@@H](c2ccnc3ccc(F)cc32)CC1 [Example 196, N-((R)-1-(cis-4-(6-fluoroquinolin-4-yl)cyclohexyl)ethyl)-4-(1H-imidazol-1-yl)benzamide]	< 0.05
CC(NC(=O)c1ccc(Cl)cc1)C1CCC(c2ccnc3ccnn23)CC1 (stereo not shown) [Example 197, 4-chloro-N-(1-(4-(pyrazolo[1,5-a]pyrimidin-7-yl)cyclohexyl)ethyl)benzamide]	< 0.25
C=CC[C@@H](NC(=O)c1ccc(Cl)cc1)[C@H]1CC[C@@H](c2ccnc3ccc(F)cc32)CC1 [Example 198, 4-chloro-N—((R)-1-((1s, 4S)-4-(6-fluoroquinolin-4-yl)cyclohexyl)but-3-en-1-yl) benzamide]	< 0.05
C=CC[C@@H](NC(=O)c1ccc(-c2ccccc2)cc1)[C@H]1CC[C@@H](c2ccnc3ccc(F)cc32)CC1 [Example 199, N—((R)-1-((is, 4S)-4-(6-fluoroquinolin-4-yl)cyclohexyl)but-3-en-1-yl)-[1,1′-biphenyl]-4-carboxamide]	< 2
CC(NC(=O)c1ccc(Cl)cc1)C1CCC(c2ccnc(C(F)(F)F)c2)CC1 (stereo not shown) [Example 211, 4-chloro-N-(1-(4-(2-(trifluoromethyl)pyridin-4-yl)cyclohcxyl)ethyl)benzamide]	< 0.25
CC(NC(=O)c1ccc(Cl)cc1)C1CCC(c2ccc(C(F)(F)F)nc2)CC1 (stereo not shown) [Example 216, 4-chloro-N-(1-(4-(6-(trifluoromcthyr)pyridin-3-yl)cyclohexyl)ethyl)benzamide]	< 0.25
Cc1c(C2CCC(C(C)NC(=O)c3ccc(-c4ccccc4)cc3)CC2)ccnc1F (stereo not shown) [Example 221, N-(1-(4-(2-fluoro-3-methylpyridin-4-yl)cyclohexyl)ethyl)-[1,1′-biphenyl]-4-carboxamide]	< 0.05
CC1(CNC(=O)c2ccc(Cl)cc2)CCN(c2ccnc3ccc(F)cc23)CC1 [Example 226, 4-Chloro-N-((1-(6-fluoroquinolin-4-yl)-4-methylpiperidin-4-yl)methyl)benzamide]	< 2
CC1(CNC(=O)c2ccc(Cl)cc2)CCN(c2ccnc(C(F)(F)F)c2)CC1 [Example 227, 4-Chloro-N-((4-methyl-1-(2-(trifluoromethyl)pyridin-4-yl)piperidin-4-yl)methyl)benzamide]	< 2
CC1(CNC(=O)c2ccc(-c3ccccc3)cc2)CCN(c2ccnc(C(F)(F)F)c2)CC1 [Example 228, N-((4-Methyl-1-(2-(trifluoromethyl)pyridin-4-yl)piperidin-4-yl)methyl)-[1,1′-biphenyl]-4-carboxamide]	< 2
